Test systems include SK-MEL-5; SNB-75; T47D; KM12; Malme-3M; SF-295; MCF7; MDA-N; HL-60; UACC-62; MOLT-4; M14; ACHN; A498; SN12C; SNB-19; NCI-H522; COLO 205; BT-549.
Assay in all cases: NCI-60 cell line screen, 48 h

The values below come from ChEMBL document CHEMBL1201862, “PubChem BioAssay data set” (2004).

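These data come from cells grown in 96-well plates and exposed to compound for 48 hours at five concentrations. At the GI50, growth is halved.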 Active and inactive are the calls of the source. Cut-off read from the data, not from the text of the source: active = GI50 up to about 1.1 µM and inactive = higher. Some results are limits rather than exact numbers.

In the case of `CCC(Cc1cnc2nc(N)nc(N)c2n1)c1ccc(C(=O)NC(CCC(=O)O)C(=O)O)cc1` (centres undefined), the GI50 with SK-MEL-5 was 0.00539 µM (active); in the assay with SNB-75, 0.329 µM (active); in the assay on T47D, 1.78 µM (inactive); in the assay with KM12 it was 0.00069 µM (active); in the assay on Malme-3M, 0.0127 µM (active); in the assay on SF-295, 0.01 µM (active). Moreover, the GI50 with MCF7 is 0.0628 µM (active); in the assay on MDA-N it was 0.000575 µM (active); with HL-60, < 0.0001 µM (active); in the assay on UACC-62 it was 0.000396 µM (active); in the assay with MOLT-4, 0.000264 µM (active); in the assay with M14, 0.000899 µM (active). In addition, the GI50 was 0.000456 µM (active) in the assay on ACHN; > 100 µM (inactive) with A498; 0.000551 µM (active) in the assay on SN12C; 0.00419 µM (active) in the assay with SNB-19; 0.01 µM (active) with NCI-H522; 3.24 µM (inactive) in the assay on COLO 205. Also, the GI50 in the assay with BT-549 was > 100 µM (inactive).

As for `COc1ccc(N(C(=O)OC(C)(C)C)[C@@H]2C(C)=C[C@H]([S@@+]([O-])c3ccc(C)cc3)[C@@H]3C(=O)N(C)C(=O)[C@@H]32)cc1`, the GI50 in the assay with SK-MEL-5 was 16.6 µM (inactive); in the assay on SNB-75, 4.94 µM (inactive); in the assay on T47D, 33.6 µM (inactive); in the assay with KM12 it was 11.6 µM (inactive); in the assay with Malme-3M, 18.6 µM (inactive); in the assay on SF-295, 15.8 µM (inactive). The GI50 with MCF7 was 15.2 µM (inactive); in the assay with MDA-N it was 18.3 µM (inactive); with HL-60, 22 µM (inactive); in the assay on UACC-62 it was 18.4 µM (inactive); in the assay with MOLT-4 it was 27.5 µM (inactive); in the assay on M14 it was 32.2 µM (inactive). Besides, the GI50 in the assay on ACHN was 20.5 µM (inactive); in the assay on A498 it was 10.1 µM (inactive); in the assay with SN12C it was 11 µM (inactive); in the assay with SNB-19, 17.5 µM (inactive); with NCI-H522, 4.2 µM (inactive); in the assay on COLO 205, 17 µM (inactive). Moreover, the GI50 in the assay with BT-549 was 13.6 µM (inactive).

Regarding `CO/C(N)=C(C#N)/N=C/c1cccnc1`, the GI50 with SK-MEL-5, in the assay with SNB-75, with T47D, in the assay on KM12, with Malme-3M and in the assay on SF-295 was > 100 µM (inactive) in each case. The GI50 with MCF7, in the assay on MDA-N, with HL-60, in the assay on UACC-62, with MOLT-4 and with M14 was > 100 µM (inactive) throughout. Besides, the GI50 in the assay on A498, with SN12C, with COLO 205 and in the assay with BT-549 was > 100 µM (inactive) each time.

`C=CCN1C(=O)/C(=C/c2ccc(C)cc2)NC1=S`: the GI50 in the assay on SK-MEL-5 was 39.6 µM (inactive); in the assay with SNB-75 it was > 100 µM (inactive); with T47D it was 67.1 µM (inactive); with KM12 it was 97.7 µM (inactive); in the assay with SF-295 it was 75 µM (inactive); in the assay with MCF7, 70.6 µM (inactive). Further, the GI50 was 94.8 µM (inactive) with MDA-N; 20 µM (inactive) in the assay on HL-60; 60.1 µM (inactive) in the assay on UACC-62; 27.1 µM (inactive) with MOLT-4; 87.7 µM (inactive) in the assay with M14; > 100 µM (inactive) in the assay with ACHN. The GI50 in the assay with A498 was 47 µM (inactive); in the assay with SN12C, > 100 µM (inactive); in the assay on SNB-19, > 100 µM (inactive); in the assay on NCI-H522, 43 µM (inactive); in the assay with COLO 205, 63.5 µM (inactive); with BT-549, > 100 µM (inactive).

As for `Oc1cc(O)c2c(c1)OC(c1ccc(O)c(O)c1)C(O)C2c1c(O)cc(O)c2c1OC(c1ccc(O)c(O)c1)C(O)C2` (centres undefined), the GI50 in the assay with SK-MEL-5 was > 100 µM (inactive); in the assay on SNB-75, > 100 µM (inactive); with T47D it was > 100 µM (inactive); in the assay with KM12, 46.5 µM (inactive); in the assay with Malme-3M it was > 100 µM (inactive); with SF-295, > 100 µM (inactive). For the same molecule, the GI50 with MCF7 is > 100 µM (inactive); with MDA-N, > 100 µM (inactive); in the assay with HL-60 it was 0.0323 µM (active); in the assay with UACC-62, > 100 µM (inactive); in the assay with M14 it was > 100 µM (inactive); with ACHN it was > 100 µM (inactive). Besides, the GI50 is 45.5 µM (inactive) with A498; > 100 µM (inactive) with SN12C; > 100 µM (inactive) in the assay with SNB-19; > 100 µM (inactive) in the assay on NCI-H522; > 100 µM (inactive) in the assay on COLO 205; > 100 µM (inactive) in the assay on BT-549.

Regarding `Brc1ccc(-c2ccc(-c3ccc(Br)s3)s2)s1`, the GI50 in the assay on SK-MEL-5, in the assay with SNB-75, with T47D, in the assay on KM12, in the assay with SF-295 and in the assay with MCF7 was > 100 µM (inactive) each time. Further, the GI50 in the assay on MDA-N, in the assay with HL-60, in the assay on UACC-62, in the assay on MOLT-4, in the assay on M14 and in the assay with ACHN was > 100 µM (inactive) in each case. For the same molecule, the GI50 in the assay on A498, with SN12C, in the assay with SNB-19, in the assay on COLO 205 and in the assay on BT-549 was > 100 µM (inactive) in each case.

For `O=C(c1ccco1)N(C(=S)OCCOc1ccccc1)c1ccccc1`, the GI50 is 20.5 µM (inactive) in the assay on T47D; 19.5 µM (inactive) in the assay with KM12; 19.9 µM (inactive) in the assay with Malme-3M; 16.2 µM (inactive) in the assay with SF-295; 20.7 µM (inactive) with MCF7; 18.9 µM (inactive) in the assay on MDA-N. Moreover, the GI50 was 24.3 µM (inactive) in the assay on HL-60; 16.6 µM (inactive) in the assay on UACC-62; 23.8 µM (inactive) with MOLT-4; 19.5 µM (inactive) in the assay on M14; 23 µM (inactive) with ACHN; 16 µM (inactive) with A498. The GI50 in the assay with SN12C was 19.5 µM (inactive); in the assay on SNB-19, 26.7 µM (inactive); in the assay with NCI-H522 it was 17.1 µM (inactive); with COLO 205, 21 µM (inactive); in the assay on BT-549, 23 µM (inactive).

On to `CN(C)Cc1cc(C(=O)/C=C/c2cccc(Cl)c2)cc(CN(C)C)c1O`, for which the GI50 with SK-MEL-5 was 2.41 µM (inactive); in the assay on SNB-75, 1.95 µM (inactive); in the assay on T47D, 4.18 µM (inactive); with KM12, 4.97 µM (inactive); in the assay on SF-295, 13.5 µM (inactive); in the assay with MCF7, 4.44 µM (inactive). Also, the GI50 in the assay on MDA-N was 3.1 µM (inactive); with HL-60, 1.69 µM (inactive); in the assay with UACC-62, 6.56 µM (inactive); in the assay on MOLT-4, 3.43 µM (inactive); in the assay on M14, 3.37 µM (inactive); in the assay with ACHN, 2.99 µM (inactive). The GI50 was 3.22 µM (inactive) in the assay on A498; 3.39 µM (inactive) with SN12C; 24.5 µM (inactive) in the assay on SNB-19; 5.98 µM (inactive) with NCI-H522; 1.77 µM (inactive) with COLO 205; 9.64 µM (inactive) with BT-549.

Regarding `COc1ccc(NC(=S)C#N)cc1`, the GI50 with SK-MEL-5 is > 100 µM (inactive); in the assay on SNB-75, > 100 µM (inactive); in the assay on T47D, 85.7 µM (inactive); with KM12, > 100 µM (inactive); with SF-295, > 100 µM (inactive); with MCF7, > 100 µM (inactive). Moreover, the GI50 in the assay with MDA-N is > 100 µM (inactive); in the assay with HL-60 it was 53 µM (inactive); in the assay on UACC-62, > 100 µM (inactive); in the assay on M14, > 100 µM (inactive); in the assay on ACHN, > 100 µM (inactive); in the assay on A498 it was 51.9 µM (inactive). For the same molecule, the GI50 in the assay with SN12C, in the assay on SNB-19, in the assay on COLO 205 and in the assay on BT-549 was > 100 µM (inactive) each time.

Turning to `C[C@@]1(c2ccccc2)O[C@@H]2C[C@H]3[C@@H]4CCC5=CC(=O)C=C[C@]5(C)[C@@]4(F)[C@@H](O)C[C@]3(C)[C@]2(C(=O)CO)O1` [AMCINAFIDE], the GI50 in the assay with SK-MEL-5 was 14.9 µM (inactive); in the assay on SNB-75, 26.9 µM (inactive); in the assay with T47D, 20.2 µM (inactive); with KM12 it was 16.4 µM (inactive); in the assay with Malme-3M, 13.8 µM (inactive); with SF-295, 16.7 µM (inactive). The GI50 in the assay on MCF7 is 13.9 µM (inactive); in the assay with MDA-N, 17 µM (inactive); in the assay with HL-60, 18.8 µM (inactive); with UACC-62, 16.7 µM (inactive); in the assay on M14, 16.1 µM (inactive); with ACHN it was 18.1 µM (inactive). Also, the GI50 is 18 µM (inactive) with A498; 12.9 µM (inactive) in the assay with SN12C; 24.7 µM (inactive) in the assay on SNB-19; 11.5 µM (inactive) in the assay on NCI-H522; 14.4 µM (inactive) with COLO 205; 18.2 µM (inactive) in the assay with BT-549.

On to `Cc1[nH]c(/C=C2\C(=O)Nc3ccccc32)c(C)c1CCC(=O)O` [ORANTINIB], for which the GI50 in the assay with SK-MEL-5 was 26.5 µM (inactive); with SNB-75 it was 12.6 µM (inactive); with T47D, 34.1 µM (inactive); with KM12 it was 4.37 µM (inactive); with Malme-3M, 21.2 µM (inactive); with SF-295, 32.5 µM (inactive). Besides, the GI50 in the assay with MCF7 is 28.1 µM (inactive); in the assay on MDA-N, 27.2 µM (inactive); in the assay on UACC-62, 32.2 µM (inactive); in the assay with MOLT-4 it was 30.1 µM (inactive); with M14, 23.1 µM (inactive); in the assay on ACHN, 30.5 µM (inactive). Also, the GI50 in the assay on A498 was 55 µM (inactive); in the assay with SN12C it was 31 µM (inactive); with SNB-19, 53.5 µM (inactive); in the assay on NCI-H522, 34.1 µM (inactive); in the assay on COLO 205, 20.6 µM (inactive); in the assay with BT-549, 34.1 µM (inactive).
